The target in one test is T1, PfNT1 (Plasmodium falciparum, UniProt Q8IDM6).
T1 construct: expressed in transfected cells; host or cells: Xenopus laevis oocytes (stage V-VI), cRNA-injected
The test can be described thus: [3H]VF-6 transport (efflux) from injected Xenopus oocytes. In kind it is cell-based. As to conditions: trans-inhibition, treatment 45 mM.

A further test addresses PfCRT^Ecu1110 (Plasmodium falciparum, UniProt Q9N623, A220S/I356L/K76T/N326D). The test can be described thus: cell-based. As to conditions: for [3H]VF-6 transport, PfCRTEcu1110 (% PfCRT3D7 control): trans-inhibition, treatment 45 mM; for IC50: mean ± SEM, n = 5, SEM. The protocol: (§1) The characterisation of [^3H]VF-6 transport via 23 different field and laboratory-derived isoforms of PfCRT was undertaken with oocytes two days post-cRNA-injection (Figs. 3a–j, 4; Supplementary Fig. 2). The oocytes were injected with 25 nL of ND96 buffer (pH 5.5) supplemented with [^3H]VF-6 and unlabelled VF-6 to achieve estimated intracellular concentrations of 1.4 and 200 μM, respectively. Ten oocytes that had resealed at the injection site were transferred to a 5 mL polystyrene round bottom tube (In Vitro Technologies) and washed with 3.5 mL of ND96 buffer before being transferred to separate wells of a white 96-well plate (PerkinElmer). This treatment served to establish the amount of radioactivity within the oocytes immediately prior to the commencement of the transport assay. Another 10 resealed oocytes were transferred to a 5 mL tube and washed with 3.5 mL of ND96 buffer. […] The assay was terminated by removing the reaction buffer with a pipette and washing the oocytes twice with 3.5 mL of ice-cold ND96 buffer. Each oocyte was transferred to a separate well of a white 96-well plate. The oocytes were lysed by the addition of 20 μL of 10% (w/v) SDS and overnight incubation at room temperature. The lysed oocyte was then combined with 150 μL of MicroScint-40 microscintillant (PerkinElmer), the plate covered with a TopSeal-A (PerkinElmer), and the radioactivity measured with a MicroBeta^2 microplate liquid scintillation analyser (PerkinElmer). VF-6 transport was calculated by subtracting the amount of radioactivity (measured in counts per minute) present within the oocytes at the end of the incubation from that measured in the oocytes sampled immediately before the commencement of the assay. The pH-dependence of transport (Fig. 3c) was determined by injecting the oocytes with [^3H]VF-6 suspended in 25 nL ND96 buffer adjusted to pH 5.0, 5.5, 6.0 or 7.0, which corresponded to the injection of 2.5–250 fmol of H^+. The dependence of [^3H]VF-6 transport on Na^+ or Cl^− was examined by injecting the oocytes with [^3H]VF-6 suspended in the control ND96 buffer (pH 5.5) or a version of this buffer that lacked either Na^+ or Cl^− (Supplementary Fig. 2). […] The dependence of peptide transport on Ca^2+ was determined by injecting the oocytes with [^3H]VF-6 suspended in ND96 buffers that contained different concentrations of Ca^2+ (0–5 mM; Supplementary Fig. 2). […] The dependence of PfCRT-mediated transport on the membrane potential was examined by using (1) Na^+ ionophore III in conjunction with the Na^+ gradients listed in Supplementary Data 7 and (2) Cl^− ionophore III in conjunction with the Cl^− gradients listed in Supplementary Data 7 to clamp the membrane potential of the oocyte from −80 to +80 mV. […] The kinetic parameters for VF-6 transport via different isoforms of PfCRT (Figs. 3e and 4a) were determined in SigmaPlot Windows Version 11.0 by a least-squares fit of the Michaelis–Menten equation to the data.
(§2) A subset of assays measured the ability of solutes known to interact with PfCRT to either cis-inhibit, trans-inhibit or trans-stimulate [^3H]VF-6 transport. These experiments involved adding these solutes to either the cis- or trans-side of the membrane relative to [^3H]VF-6. […] At least five independent experiments were performed (on different days and using oocytes from different frogs), and within each experiment measurements were made from ten oocytes per treatment.

A further test has as its target PfCRT^3D7 (Plasmodium falciparum, UniProt Q8IBZ9). The test can be described thus: cell-based. As to conditions: for Trans effect on [3H]VF-6 transport via PfCRT (in words): all three PfCRT isoforms (3D7, Ecu1110, Dd2); for IC50: mean ± SEM, n = 5, SEM. How it is done: as §1, §2
In the next test the target is PfCRT^Dd2 (Plasmodium falciparum, UniProt Q9N623, A220S/I356T/K76T/M74I/N326S/N75E/Q271E/R371I). Description: cell-based. As to conditions: for [3H]VF-6 transport, PfCRTDd2 (% PfCRT3D7 control): trans-inhibition, treatment 45 mM; for IC50: mean ± SEM, n = 5, SEM. The protocol:
as §1, §2

[1] abbreviates: trans-inhibition, treatment 45 mM, Experiment 1.
Setting [2] is: trans-inhibition, treatment 45 mM, Experiment 2.
The mark [3] stands for this setting: trans-inhibition, treatment 45 mM, Experiment 3.
Setting [4] is: trans-inhibition, treatment 45 mM, Experiment 4.
[5] abbreviates: trans-inhibition, treatment 45 mM, Experiment 5.
[6] abbreviates: Cis-inhibition IC50 of [3H]VF-6 transport, PfCRTEcu1110, drug on same side as [3H]VF-6.
The mark [7] stands for this setting: Cis-inhibition IC50 of [3H]VF-6 transport, PfCRTDd2, drug on same side as [3H]VF-6.

These results are taken from publication PMC7413254 (Nature Communications, 2020).

Where “and” joins values, the source holds several entries; their conditions need not be identical. Identical values can stand only once. Like-named read-outs stand apart in the source and are kept apart here. Where no end group is shown, it is not given here. A value given as a limit tells only on which side of the number the result lay.

Sequence of PfCRT^Ecu1110 (Q9N623 whole entry A220S/I356L/K76T/N326D, canonical isoform): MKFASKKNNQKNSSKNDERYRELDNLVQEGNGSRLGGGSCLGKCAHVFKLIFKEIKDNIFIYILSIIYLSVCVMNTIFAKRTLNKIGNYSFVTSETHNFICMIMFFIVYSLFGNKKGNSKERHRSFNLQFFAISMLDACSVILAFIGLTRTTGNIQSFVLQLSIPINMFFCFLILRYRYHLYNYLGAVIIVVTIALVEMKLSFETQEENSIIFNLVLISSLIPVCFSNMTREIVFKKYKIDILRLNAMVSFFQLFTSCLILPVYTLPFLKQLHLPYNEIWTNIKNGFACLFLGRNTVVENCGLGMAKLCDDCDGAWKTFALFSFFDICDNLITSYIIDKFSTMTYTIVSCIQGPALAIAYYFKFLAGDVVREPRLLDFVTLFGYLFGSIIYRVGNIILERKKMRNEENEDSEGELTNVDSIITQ
T1 sequence (Q8IDM6 whole entry): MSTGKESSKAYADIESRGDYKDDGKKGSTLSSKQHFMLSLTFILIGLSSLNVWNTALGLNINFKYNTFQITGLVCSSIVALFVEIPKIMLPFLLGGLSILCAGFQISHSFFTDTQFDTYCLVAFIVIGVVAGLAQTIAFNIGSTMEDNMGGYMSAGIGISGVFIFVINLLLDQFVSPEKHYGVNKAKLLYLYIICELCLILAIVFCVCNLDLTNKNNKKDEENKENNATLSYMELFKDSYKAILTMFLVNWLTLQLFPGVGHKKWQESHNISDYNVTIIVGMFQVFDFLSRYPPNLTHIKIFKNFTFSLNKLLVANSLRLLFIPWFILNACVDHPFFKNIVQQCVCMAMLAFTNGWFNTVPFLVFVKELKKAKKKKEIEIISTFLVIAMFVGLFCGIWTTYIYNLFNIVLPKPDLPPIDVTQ
Sequence of PfCRT^3D7 (Q8IBZ9 59-398): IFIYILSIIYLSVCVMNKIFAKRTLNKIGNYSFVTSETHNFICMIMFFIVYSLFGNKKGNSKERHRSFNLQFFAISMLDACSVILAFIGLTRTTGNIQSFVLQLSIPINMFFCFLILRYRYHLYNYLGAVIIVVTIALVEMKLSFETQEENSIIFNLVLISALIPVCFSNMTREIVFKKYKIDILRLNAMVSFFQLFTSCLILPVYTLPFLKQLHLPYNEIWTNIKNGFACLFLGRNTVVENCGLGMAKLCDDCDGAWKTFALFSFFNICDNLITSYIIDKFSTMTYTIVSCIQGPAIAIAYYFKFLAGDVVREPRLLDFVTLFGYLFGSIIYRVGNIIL
Sequence of PfCRT^Dd2 (Q9N623 whole entry A220S/I356T/K76T/M74I/N326S/N75E/Q271E/R371I): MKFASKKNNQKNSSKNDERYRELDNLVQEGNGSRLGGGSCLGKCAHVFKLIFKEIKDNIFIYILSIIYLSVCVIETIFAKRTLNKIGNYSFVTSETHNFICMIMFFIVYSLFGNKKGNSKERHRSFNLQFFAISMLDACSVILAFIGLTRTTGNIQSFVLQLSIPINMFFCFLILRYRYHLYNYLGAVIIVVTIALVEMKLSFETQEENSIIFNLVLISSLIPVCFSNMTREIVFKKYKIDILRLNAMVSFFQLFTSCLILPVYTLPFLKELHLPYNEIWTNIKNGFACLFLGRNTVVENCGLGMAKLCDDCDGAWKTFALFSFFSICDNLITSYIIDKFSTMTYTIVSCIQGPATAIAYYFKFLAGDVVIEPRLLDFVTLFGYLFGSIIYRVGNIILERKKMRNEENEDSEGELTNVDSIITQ

Consider PVNF [VF-6-derived peptide], for which the “[3H]VF-6 transport, PfNT1 (% PfCRT3D7 control)” value at PfNT1 (Experiment 1) stood at 4.26 % PfCRT3D7 control; on PfNT1 (Experiment 2), 4.27 % PfCRT3D7 control; on PfNT1 (Experiment 3), 4.41 % PfCRT3D7 control; on PfNT1 (Experiment 4), 3.17 % PfCRT3D7 control; at PfNT1 (Experiment 5), 4.26 % PfCRT3D7 control. Besides, the “[3H]VF-6 transport, PfCRTEcu1110 (% PfCRT3D7 control)” value worked out at 10.55 % PfCRT3D7 control on PfCRT^Ecu1110 (Experiment 1); 12.46 % PfCRT3D7 control on PfCRT^Ecu1110 (Experiment 2); 11.35 % PfCRT3D7 control at PfCRT^Ecu1110 (Experiment 3); 10.58 % PfCRT3D7 control on PfCRT^Ecu1110 (Experiment 4); 10.07 % PfCRT3D7 control at PfCRT^Ecu1110 (Experiment 5). Besides, the “[3H]VF-6 transport, PfCRT3D7 (% PfCRT3D7 control)” value on PfCRT^3D7 is 25.32 % PfCRT3D7 control and 24.64 % PfCRT3D7 control and 25.23 % PfCRT3D7 control and 25.9 % PfCRT3D7 control and 23.94 % PfCRT3D7 control. Besides, the “[3H]VF-6 transport, PfCRTDd2 (% PfCRT3D7 control)” value came to 8.23 % PfCRT3D7 control on PfCRT^Dd2 (Experiment 1); 8.92 % PfCRT3D7 control on PfCRT^Dd2 (Experiment 2); 7.3 % PfCRT3D7 control on PfCRT^Dd2 (Experiment 3); 7.53 % PfCRT3D7 control on PfCRT^Dd2 (Experiment 4); 7.44 % PfCRT3D7 control at PfCRT^Dd2 (Experiment 5).
For the compound VDPVNF [VF-6], the “[3H]VF-6 transport, PfNT1 (% PfCRT3D7 control)” value at PfNT1 (Experiment 1) was 3.58 % PfCRT3D7 control; on PfNT1 (Experiment 2) it was 3.28 % PfCRT3D7 control; at PfNT1 (Experiment 3), 3.22 % PfCRT3D7 control; on PfNT1 (Experiment 4) it was 4.26 % PfCRT3D7 control; on PfNT1 (Experiment 5) it was 4.11 % PfCRT3D7 control. The “[3H]VF-6 transport, PfCRT3D7 (% PfCRT3D7 control)” value amounted to 17.84 % PfCRT3D7 control at PfCRT^3D7 (setting [1]); 18.04 % PfCRT3D7 control on PfCRT^3D7 (setting [2]); 20.27 % PfCRT3D7 control at PfCRT^3D7 (setting [3]); 18.57 % PfCRT3D7 control on PfCRT^3D7 (setting [4]); 17.74 % PfCRT3D7 control at PfCRT^3D7 (setting [5]).
With VDPVN [VF-6-derived peptide], the “[3H]VF-6 transport, PfNT1 (% PfCRT3D7 control)” value at PfNT1 (Experiment 1) amounted to 3.27 % PfCRT3D7 control; at PfNT1 (Experiment 2), 3.32 % PfCRT3D7 control; on PfNT1 (Experiment 3), 3.39 % PfCRT3D7 control; at PfNT1 (Experiment 4) it was 3.68 % PfCRT3D7 control; on PfNT1 (Experiment 5), 3.32 % PfCRT3D7 control. Moreover, the “[3H]VF-6 transport, PfCRTEcu1110 (% PfCRT3D7 control)” value was 6.34 % PfCRT3D7 control at PfCRT^Ecu1110 (Experiment 1); 5.74 % PfCRT3D7 control at PfCRT^Ecu1110 (Experiment 2); 6.34 % PfCRT3D7 control on PfCRT^Ecu1110 (Experiment 3); 6.94 % PfCRT3D7 control on PfCRT^Ecu1110 (Experiment 4); 6.25 % PfCRT3D7 control on PfCRT^Ecu1110 (Experiment 5). In addition, the “[3H]VF-6 transport, PfCRT3D7 (% PfCRT3D7 control)” value is 20.24 % PfCRT3D7 control on PfCRT^3D7 (setting [1]); 19.6 % PfCRT3D7 control at PfCRT^3D7 (setting [2]); 22.64 % PfCRT3D7 control at PfCRT^3D7 (setting [3]); 22.05 % PfCRT3D7 control on PfCRT^3D7 (setting [4]); 19.48 % PfCRT3D7 control at PfCRT^3D7 (setting [5]). Besides, the “[3H]VF-6 transport, PfCRTDd2 (% PfCRT3D7 control)” value at PfCRT^Dd2 (Experiment 1) was 7.28 % PfCRT3D7 control; on PfCRT^Dd2 (Experiment 2), 7.49 % PfCRT3D7 control; at PfCRT^Dd2 (Experiment 3), 7.54 % PfCRT3D7 control; on PfCRT^Dd2 (Experiment 4), 7.59 % PfCRT3D7 control; at PfCRT^Dd2 (Experiment 5), 7.33 % PfCRT3D7 control.
For DPVNF [VF-6-derived peptide], the “[3H]VF-6 transport, PfNT1 (% PfCRT3D7 control)” value was found to be 3.26 % PfCRT3D7 control on PfNT1 (Experiment 1); 3.36 % PfCRT3D7 control at PfNT1 (Experiment 2); 3.25 % PfCRT3D7 control at PfNT1 (Experiment 3); 3.79 % PfCRT3D7 control on PfNT1 (Experiment 4); 3.25 % PfCRT3D7 control at PfNT1 (Experiment 5). The “[3H]VF-6 transport, PfCRTEcu1110 (% PfCRT3D7 control)” value at PfCRT^Ecu1110 (Experiment 1) is 7.36 % PfCRT3D7 control; at PfCRT^Ecu1110 (Experiment 2), 8.38 % PfCRT3D7 control; at PfCRT^Ecu1110 (Experiment 3) it was 7.23 % PfCRT3D7 control; on PfCRT^Ecu1110 (Experiment 4), 8.43 % PfCRT3D7 control; at PfCRT^Ecu1110 (Experiment 5), 7.77 % PfCRT3D7 control. Further, the “[3H]VF-6 transport, PfCRT3D7 (% PfCRT3D7 control)” value on PfCRT^3D7 (setting [1]) was found to be 21.64 % PfCRT3D7 control; on PfCRT^3D7 (setting [2]), 22.13 % PfCRT3D7 control; on PfCRT^3D7 (setting [3]), 19.38 % PfCRT3D7 control; at PfCRT^3D7 (setting [4]) it was 18.32 % PfCRT3D7 control; at PfCRT^3D7 (setting [5]), 19.24 % PfCRT3D7 control. Besides, the “[3H]VF-6 transport, PfCRTDd2 (% PfCRT3D7 control)” value on PfCRT^Dd2 (Experiment 1) is recorded as 9.35 % PfCRT3D7 control; at PfCRT^Dd2 (Experiment 2) it was 8.35 % PfCRT3D7 control; at PfCRT^Dd2 (Experiment 3) it was 9.55 % PfCRT3D7 control; at PfCRT^Dd2 (Experiment 4), 8.26 % PfCRT3D7 control; on PfCRT^Dd2 (Experiment 5), 9.66 % PfCRT3D7 control.
The term IC50 denotes the point on the concentration scale where inhibition reaches its midpoint. Turning to `CC(C)(C)NC(=O)[C@@H]1C[C@@H]2CCCC[C@@H]2CN1C[C@@H](O)[C@H](Cc1ccccc1)NC(=O)[C@H](CC(N)=O)NC(=O)c1ccc2ccccc2n1` [Saquinavir, saquinavir, reference compound], the IC50 is 74 ± 3.9 µM at PfCRT^Ecu1110 (setting [6]); 50 ± 2.3 µM at PfCRT^3D7 (drug on same side as [3H]VF-6, read-out: Cis-inhibition IC50 of [3H]VF-6 transport, PfCRT3D7); 89 ± 3.8 µM against PfCRT^Dd2 (setting [7]). The “Trans effect on [3H]VF-6 transport via PfCRT (in words)” value is recorded as “trans-stimulated” on PfCRT^3D7 and “Trans-stimulates” at PfCRT^3D7 (listed as SQV).
`CCN(CC)CCCC(C)Nc1ccnc2cc(Cl)ccc12` (stereo not drawn) [CQ, chloroquine, reference compound]: the IC50 at PfCRT^Ecu1110 (setting [6]) is 72 ± 3.1 µM; at PfCRT^Ecu1110 (Trans-inhibition IC50 of [3H]VF-6 transport, PfCRTEcu1110, drug on opposite side to [3H]VF-6), 62 ± 2.6 µM; against PfCRT^3D7 (Cis-inhibition IC50 of [3H]VF-6 transport, PfCRT3D7, drug on same side as [3H]VF-6), 110 ± 5.9 µM; at PfCRT^3D7 (Trans-inhibition IC50 of [3H]VF-6 transport, PfCRT3D7, drug on opposite side to [3H]VF-6), 77 ± 5.2 µM; against PfCRT^Dd2 (setting [7]), 53 ± 2.8 µM; against PfCRT^Dd2 (Trans-inhibition IC50 of [3H]VF-6 transport, PfCRTDd2, drug on opposite side to [3H]VF-6) it was 54 ± 3.6 µM. Further, the “Extracellular concentration giving modest trans-stimulation of [3H]VF-6 transport” value on PfCRT^3D7 (all three PfCRT isoforms) was at least 500 µM.
